Target: T1, Human CXCR2 Receptor (Homo sapiens, UniProt P25025)
T1 construct: purchased Biosignal Packard Inc; host or cells: Chinese hamster ovary cells (CHO-K1), membranes
T1 sequence (P25025 1-360): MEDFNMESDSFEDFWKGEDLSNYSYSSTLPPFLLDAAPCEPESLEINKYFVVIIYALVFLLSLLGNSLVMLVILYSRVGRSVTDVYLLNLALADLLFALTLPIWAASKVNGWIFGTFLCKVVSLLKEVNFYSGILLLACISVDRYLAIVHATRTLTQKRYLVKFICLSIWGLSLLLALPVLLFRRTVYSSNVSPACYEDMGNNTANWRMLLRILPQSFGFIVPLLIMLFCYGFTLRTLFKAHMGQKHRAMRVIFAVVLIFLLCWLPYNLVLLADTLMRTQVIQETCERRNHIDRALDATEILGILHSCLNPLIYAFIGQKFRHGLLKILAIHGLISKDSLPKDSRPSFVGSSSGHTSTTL
Assay: [35S]-GTPγS binding assay for human CXCR2 receptor using SPA technology
Type: biochemical
Conditions: CHO-K1 membranes expressing human CXCR2; 100 nM IL-8 stimulated; read-out: IC50 values in the [35S]-GPTγS binding assay
Excerpt: [^35S]-GTPγS Binding Assay for Human CXCR2 Receptor Using SPA Technology
[^35S]-GTPγS (with specific activity 1082 Ci/mmol) and wheat germ agglutinin poly vinyl toluene scintillation proximity beads are purchased from Amersham Pharmacia Biotech. The Chinese hamster ovary cell (CHO-K1) membranes expressing human CXCR2 receptors are purchased from Biosignal Packard Inc. All other chemicals are of analytical grade. White non-binding surface 96 well Optiplate™ microplates are obtained from Packard. Recombinant human IL-8 is synthesised, cloned and expressed in Escherichia coli as described previously (Lindley I, et al., Proc. Natl. Acad. Sci., 1988, 85(23):9199). The assay is performed in duplicate in 96 well Optiplate™ microplate in a final volume of 250 μl per well. Compounds are diluted in DMSO (0.5% final concentration) and incubated in 20 mM HEPES buffer pH 7.4 containing 10 mM MgCl2, 100 mM NaCl, 1 mM EDTA plus 100 nM IL-8, 50 μM GDP and […] [^35S]GTPγS per well. SPA beads (1 mg/well final concentration) were pre-mixed with the membranes (10 μg/well final concentration) in assay buffer: 20 mM HEPES buffer pH 7.4 containing 10 mM MgCl2, 100 mM NaCl, 1 mM EDTA. […] The plate is centrifuged and read on Packard TopCoun™ scintillation counter, program [^35S dpm] for 1 min/well. Data are expressed as the % response to 100 nM IL-8 minus basal.

Row | IC50 | Structure (SMILES)
1 | 22 nM | O=c1c(Nc2ccc(Cl)c(S(=O)(=O)N3CCOCC3)c2O)c(NC2CCSC2)c1=O (centres unmarked) [Example 7, 3-[4-Chloro-2-hydroxy-3-(morpholine-4-sulfonyl)-phenylamino]-4-(tetra-hydro-thiophen-3-ylamino)-cyclobut-3-ene-1,2-dione]
2 | 58 nM | CC[C@@H](Nc1c(Nc2ccc(Cl)c(S(=O)(=O)N3CCCC3)c2O)c(=O)c1=O)[C@H]1CC[C@@H](C)O1 [Example 17, 3-[4-Chloro-2-hydroxy-3-(pyrrolidine-1-sulfonyl)-phenylamino]-4-[(R)-1-((2R,5R)-5-methyl-tetrahydrofuran-2-yl)-propylamino]-cyclobut-3-ene-1,2-dione]

Reference: patent US8183281B2, “CXC-chemokine receptor ligands” (Novartis AG, priority 2007, dated 2012)
